Data taken from ChEMBL document CHEMBL1128611, “Evolution of a series of non-quinoline leukotriene D4 receptor antagonist; synthesis and sar of benzothiazoles and thiazoles substituted benzyl alcohols as potent LTD4 antagonists” (Bioorg Med Chem Lett, 1995).
Where “and” joins values, the source holds several entries; their conditions need not be identical. Equal entries are not always repeated.

Columns and labels:
[1] = target: T1, Cysteinyl leukotriene receptor 1 (Cavia porcellus, UniProt Q2NNR5); test: Inhibition of [3H]LTD4 binding on guinea-pig lung membranes; format: tissue-based, Membrane
T1 sequence (Q2NNR5 whole entry): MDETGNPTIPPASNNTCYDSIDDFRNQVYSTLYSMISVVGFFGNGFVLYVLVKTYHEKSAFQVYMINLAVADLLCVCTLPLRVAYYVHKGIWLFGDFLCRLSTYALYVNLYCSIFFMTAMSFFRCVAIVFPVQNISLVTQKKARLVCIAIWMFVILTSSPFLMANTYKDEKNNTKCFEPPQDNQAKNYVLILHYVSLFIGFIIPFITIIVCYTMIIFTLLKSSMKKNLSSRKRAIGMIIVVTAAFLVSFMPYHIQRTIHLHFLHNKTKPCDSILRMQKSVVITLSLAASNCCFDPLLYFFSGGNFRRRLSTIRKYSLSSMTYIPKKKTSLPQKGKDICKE

Cavia porcellus = species on record: Cavia porcellus; test: Inhibition of LTD4-induced contraction of guinea-pig tracheal chains; format: functional, Trachea
Mus musculus [2] = test: […] effect on peroximal enzyme induction (PEI) over control animals (mice) after 4 days dosing at 400 mg/Kg perorally; format: functional
Mus musculus [3] = test: […] effect on the liver weight in mice after 4 days dosing at 400 mg/Kg perorally; format: functional
Monkey [4] = test: […] inhibition of peptidoleukotriene -induced reduction in dynamic compliance in conscious squirrel monkey at a dose of 0.03 mg/Kg; format: functional
Monkey [5] = test: Inhibition of LTD4-induced bronchoconstriction in conscious squirrel monkey; format: functional
Mus musculus [6] = test: Compound was evaluated for its effect on the liver weight in mice after 4 days dosing at 400 mg/Kg perorally; format: functional
Monkey [7] = test: […] inhibition of peptidoleukotriene -induced reduction in dynamic compliance in conscious squirrel monkey at a dose of 0.1 mg/Kg; format: functional

SMILES	IC50 [1]	also measured
CC(C)(O)c1ccccc1CC[C@@H](SCC1(CC(=O)O)CC1)c1cccc(/C=C/c2nc(-c3ccc(Cl)cc3)cs2)c1	79.3 nM and 99.7 nM	
CC(C)(O)c1ccccc1CC[C@@H](SCC1(CC(=O)O)CC1)c1cccc(/C=C/c2nc3c(s2)CCCC3)c1	1.5 nM	
CC(C)(C)c1csc(/C=C/c2cccc([C@@H](CCc3ccccc3C(C)(C)O)SCC3(CC(=O)O)CC3)c2)n1	2 nM and 3.3 nM	
CC(C)(O)c1ccccc1CC[C@@H](SCC1(CC(=O)O)CC1)c1cccc(/C=C/c2nc(-c3ccccc3)cs2)c1	11 nM and 6.7 nM	
CC(C)(O)c1ccccc1CC[C@@H](SCC1(CC(=O)O)CC1)c1cccc(/C=C/c2nc(-c3ccc(F)cc3)cs2)c1	6.7 nM and 15.4 nM	
CC(C)(O)c1ccccc1CC[C@@H](SCC1(CC(=O)O)CC1)c1cccc(/C=C/c2nc(C3CC3)cs2)c1	1.7 nM and 3.3 nM	
CC(C)(O)c1ccccc1CC[C@@H](SCC1(CC(=O)O)CC1)c1cccc(/C=C/c2nc3cc(F)c(F)cc3s2)c1	0.8 nM	
COc1ccc(-c2csc(/C=C/c3cccc([C@@H](CCc4ccccc4C(C)(C)O)SCC4(CC(=O)O)CC4)c3)n2)cc1	98.7 nM and 138 nM	
CC(C)(O)c1ccccc1CC[C@@H](SCC1(CC(=O)O)CC1)c1cccc(/C=C/c2nc3cc(F)ccc3s2)c1	3.3 nM	pKb (Cavia porcellus): 8.8; PEI (Mus musculus [2]): 120; Weight (Mus musculus [3]): 12%; Cdyn (Monkey [4]): 100%; RL (Monkey [5]): 73%
CC(C)(O)c1ccccc1CC[C@@H](SCC1(CC(=O)O)CC1)c1cccc(/C=C/c2nc(CSc3ccccc3)cs2)c1	42.2 nM	
CC(C)(O)c1ccccc1CC[C@@H](SCC1(CC(=O)O)CC1)c1cccc(/C=C/c2nc(C3CCCCC3)cs2)c1	2.1 nM	
CC(C)(O)c1ccccc1CC[C@@H](SCC1(CC(=O)O)CC1)c1cccc(/C=C/c2nc(C3CCCC3)cs2)c1	1.4 nM and 0.8 nM	
CC(C)c1csc(/C=C/c2cccc([C@@H](CCc3ccccc3C(C)(C)O)SCC3(CC(=O)O)CC3)c2)n1	1.9 nM	pKb (Cavia porcellus): 9.1; PEI (Mus musculus [2]): 62; Weight (Mus musculus [6]): 9%; Cdyn (Monkey [4]): -8%; RL (Monkey [5]): 40%
CC(C)(O)c1ccccc1CC[C@@H](SCC1(CC(=O)O)CC1)c1cccc(/C=C/c2nc3cc(Cl)ccc3s2)c1	7.7 nM and 6 nM	
CC(C)(O)c1ccccc1CC[C@@H](SCC1(CC(=O)O)CC1)c1cccc(/C=C/c2nc3cc(C(F)(F)F)ccc3s2)c1	7.5 nM and 11.6 nM	
CC(C)(O)c1ccccc1CC[C@@H](SCC1(CC(=O)O)CC1)c1cccc(/C=C/c2nc3ccccc3s2)c1	16.8 nM	
CC(C)(O)c1ccccc1CC[C@@H](SCC1(CC(=O)O)CC1)c1cccc(/C=C/c2nccs2)c1	381 nM	
COc1ccc2nc(/C=C/c3cccc([C@@H](CCc4ccccc4C(C)(C)O)SCC4(CC(=O)O)CC4)c3)sc2c1	47.6 nM	
CC(C)(O)c1ccccc1CC[C@@H](SCC1(CC(=O)O)CC1)c1cccc(/C=C/c2nc3c(s2)CCC3)c1	3 nM and 4.6 nM	
Cc1sc(/C=C/c2cccc([C@@H](CCc3ccccc3C(C)(C)O)SCC3(CC(=O)O)CC3)c2)nc1C(C)C	12.8 nM and 5.2 nM	
CC(C)c1nc(/C=C/c2cccc([C@@H](CCc3ccccc3C(C)(C)O)SCC3(CC(=O)O)CC3)c2)sc1Cl	170 nM and 197 nM	
CC(CC(F)(F)F)c1csc(/C=C/c2cccc([C@@H](CCc3ccccc3C(C)(C)O)SCC3(CC(=O)O)CC3)c2)n1 (some centres undefined)	0.7 nM and 1 nM	
CC(C)(O)c1ccccc1CC[C@@H](SCC1(CC(=O)O)CC1)c1cccc(/C=C/c2nc(C3CCC3)cs2)c1	0.6 nM and 0.5 nM	
CN(C)C(=O)CCS[C@H](SCCC(=O)O)c1cccc(/C=C/c2ccc3ccc(Cl)cc3n2)c1 [VERLUKAST]	3.9 nM	pKb (Cavia porcellus): 8.9; PEI (Mus musculus [2]): 65; Weight (Mus musculus [3]): 0%; RL (Monkey [5]): 59%; Cdyn (Monkey [7]): 56%
